According to ChEMBL document CHEMBL1201862, “PubChem BioAssay data set” (2004):
Activity calls are given as the source filed them.

Legend:
[1] = target: DNA damage-inducible transcript 3 protein (Mus musculus, UniProt P35639); format: functional, Cricetulus griseus
[2] = target: X-box-binding protein 1 (Homo sapiens, UniProt P17861); format: functional, Cricetulus griseus;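 also: confirmatory dose-response counter-screen serving a CHOP assay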
[3] = HEp-2 cell cytotoxicity, dose response, cytotoxicity control for RSV inhibitor project, HTS (AID 2410); format: functional; settings: human respiratory syncytial virus
[4] = tested on: HEK293; assay: NOD1 signaling inhibitors, primary screen, cell-based, luminescence, uHTS (AID 1578); format: functional; settings: Homo sapiens
[5] = tested on: Streptococcus sp. 'group A'; assay: growth inhibition of control SK(-) GAS strain, dose response, counter-screen for streptokinase expression inhibitor project, luminescence, kanamycin, BacTiterGlo, confirmation (AID 1900); format: functional, organism-based; settings: read-out: EC50
[6] = tested on: HEK293; assay: cells; format: functional, cell-based; settings: Homo sapiens
[7] = target: T1, Streptokinase A (Streptococcus pyogenes serotype M1, UniProt P10520); assay: S. pyogenes streptokinase expression inhibitors, potency, dose response, plasminogen activation absorbance, OD405 (AID 1914); format: functional, Streptococcus pyogenes M1 GAS;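 also: secreted streptokinase activity via plasminogen activation per viability signal from cell pellet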
T1 sequence (P10520 whole entry): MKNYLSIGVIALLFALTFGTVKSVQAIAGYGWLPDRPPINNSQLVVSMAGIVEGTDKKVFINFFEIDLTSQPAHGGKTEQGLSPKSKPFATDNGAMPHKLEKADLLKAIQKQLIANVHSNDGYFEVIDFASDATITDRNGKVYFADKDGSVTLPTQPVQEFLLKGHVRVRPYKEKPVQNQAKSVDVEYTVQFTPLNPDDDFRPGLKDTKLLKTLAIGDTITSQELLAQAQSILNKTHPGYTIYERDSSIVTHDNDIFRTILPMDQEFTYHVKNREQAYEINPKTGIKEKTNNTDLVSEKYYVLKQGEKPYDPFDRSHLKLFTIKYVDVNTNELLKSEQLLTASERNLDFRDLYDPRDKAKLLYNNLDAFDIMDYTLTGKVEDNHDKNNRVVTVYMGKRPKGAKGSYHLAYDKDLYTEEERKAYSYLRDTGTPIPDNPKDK

[8] = tested on: HEK293; assay: cells; format: functional, cell-based; settings: Homo sapiens; remark: listed apart in the source
[9] = target: Nucleotide-binding oligomerization domain-containing protein 2 (Homo sapiens, UniProt Q9HC29); assay: NOD2 signaling inhibitors, cell-based, luminescence, uHTS, HEK293 (AID 1566); format: functional
Chain of Nucleotide-binding oligomerization domain-containing protein 2 (Q9HC29 whole entry, the tested form may be a part): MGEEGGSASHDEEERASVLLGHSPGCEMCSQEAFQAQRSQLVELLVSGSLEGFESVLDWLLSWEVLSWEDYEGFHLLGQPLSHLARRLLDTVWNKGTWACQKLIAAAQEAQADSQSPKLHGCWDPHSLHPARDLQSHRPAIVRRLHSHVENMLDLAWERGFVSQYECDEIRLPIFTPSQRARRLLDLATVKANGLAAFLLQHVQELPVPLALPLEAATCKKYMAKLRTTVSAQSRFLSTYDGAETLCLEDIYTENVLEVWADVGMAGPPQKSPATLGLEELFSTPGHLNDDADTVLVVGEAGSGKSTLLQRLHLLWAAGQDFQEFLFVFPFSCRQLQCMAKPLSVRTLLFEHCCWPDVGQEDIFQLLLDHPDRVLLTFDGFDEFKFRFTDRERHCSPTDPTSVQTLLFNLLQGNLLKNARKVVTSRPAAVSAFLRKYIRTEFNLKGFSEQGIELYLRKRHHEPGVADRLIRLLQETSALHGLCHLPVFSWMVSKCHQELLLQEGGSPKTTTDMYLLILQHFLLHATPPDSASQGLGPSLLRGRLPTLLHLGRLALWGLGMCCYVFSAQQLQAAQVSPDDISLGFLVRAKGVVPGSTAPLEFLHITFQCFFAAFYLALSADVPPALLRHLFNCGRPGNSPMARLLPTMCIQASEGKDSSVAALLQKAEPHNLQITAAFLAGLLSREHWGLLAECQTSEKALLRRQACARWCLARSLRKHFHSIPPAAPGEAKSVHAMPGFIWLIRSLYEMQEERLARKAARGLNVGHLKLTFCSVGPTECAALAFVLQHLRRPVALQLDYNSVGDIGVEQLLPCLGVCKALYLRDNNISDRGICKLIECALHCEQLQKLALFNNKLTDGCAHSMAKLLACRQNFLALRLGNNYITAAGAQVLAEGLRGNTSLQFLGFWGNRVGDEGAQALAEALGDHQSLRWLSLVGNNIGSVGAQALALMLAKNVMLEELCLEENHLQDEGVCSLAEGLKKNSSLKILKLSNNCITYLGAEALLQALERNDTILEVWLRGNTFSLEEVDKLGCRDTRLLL

[10] = tested on: HEK293; assay: NOD2 signaling inhibitors in MDP-stimulated cells, cell-based, uHTS, luminescence (AID 2001); format: functional; settings: Homo sapiens
[11] = tested on: HEK293; assay: cells; format: functional, cell-based; settings: Homo sapiens; remark: listed apart in the source
[12] = tested on: Streptococcus; assay: Group A Streptococcus viability loss, dose response, counter-screen for streptokinase expression inhibitor project, luminescence, BacTiterGlo (AID 1915); format: functional, organism-based;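 also: potency for reduction of bacterial viability or growth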
[13] = target: T2, Short transient receptor potential channel 4 (Mus musculus, UniProt Q9QUQ5); assay: mouse TRPC4 channel activators, dose response, cell-based, HEK293 TRPC4/mu-opioid, Fluo-4 calcium (AID 434937); format: functional
T2 sequence (Q9QUQ5 whole entry): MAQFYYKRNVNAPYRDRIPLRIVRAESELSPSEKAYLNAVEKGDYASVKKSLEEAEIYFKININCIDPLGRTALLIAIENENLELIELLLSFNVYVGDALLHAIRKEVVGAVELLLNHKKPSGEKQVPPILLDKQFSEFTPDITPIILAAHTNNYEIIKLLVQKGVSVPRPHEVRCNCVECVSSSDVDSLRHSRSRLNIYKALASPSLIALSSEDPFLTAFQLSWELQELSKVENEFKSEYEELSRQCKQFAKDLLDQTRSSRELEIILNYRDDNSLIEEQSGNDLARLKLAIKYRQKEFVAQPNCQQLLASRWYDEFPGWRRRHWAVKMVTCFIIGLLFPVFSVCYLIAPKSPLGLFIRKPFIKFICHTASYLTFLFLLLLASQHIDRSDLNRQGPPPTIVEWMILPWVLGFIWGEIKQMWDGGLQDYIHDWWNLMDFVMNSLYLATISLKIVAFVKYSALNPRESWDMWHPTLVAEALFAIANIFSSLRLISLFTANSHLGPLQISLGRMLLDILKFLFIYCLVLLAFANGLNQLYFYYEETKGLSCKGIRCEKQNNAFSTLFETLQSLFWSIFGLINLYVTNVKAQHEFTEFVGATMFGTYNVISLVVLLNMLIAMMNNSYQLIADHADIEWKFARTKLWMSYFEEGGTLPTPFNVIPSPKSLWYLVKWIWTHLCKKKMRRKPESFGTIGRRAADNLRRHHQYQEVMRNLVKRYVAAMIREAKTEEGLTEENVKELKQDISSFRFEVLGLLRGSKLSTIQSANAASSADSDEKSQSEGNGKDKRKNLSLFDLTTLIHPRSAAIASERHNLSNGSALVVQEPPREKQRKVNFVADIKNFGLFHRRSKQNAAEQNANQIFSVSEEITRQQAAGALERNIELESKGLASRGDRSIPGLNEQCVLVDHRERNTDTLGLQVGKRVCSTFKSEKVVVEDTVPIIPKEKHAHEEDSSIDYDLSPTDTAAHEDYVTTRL

[14] = target: Glyceraldehyde-3-phosphate dehydrogenase (Homo sapiens, UniProt P04406)
Chain of Glyceraldehyde-3-phosphate dehydrogenase (P04406 whole entry): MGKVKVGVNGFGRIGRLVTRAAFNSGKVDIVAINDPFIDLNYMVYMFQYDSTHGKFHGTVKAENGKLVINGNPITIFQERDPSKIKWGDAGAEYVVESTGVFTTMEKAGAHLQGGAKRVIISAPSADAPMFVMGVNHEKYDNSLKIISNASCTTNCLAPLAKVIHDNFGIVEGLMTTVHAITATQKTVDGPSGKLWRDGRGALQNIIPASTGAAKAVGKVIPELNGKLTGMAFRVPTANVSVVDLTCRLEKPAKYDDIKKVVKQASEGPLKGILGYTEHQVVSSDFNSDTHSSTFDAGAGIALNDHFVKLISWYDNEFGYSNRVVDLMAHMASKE

[15] = target: Alkaline phosphatase, placental type (Homo sapiens, UniProt P05187); assay: PLAP enzyme inhibitors, confirmation, biochemical, luminescence (AID 1512); format: functional
Chain of Alkaline phosphatase, placental type (P05187 whole entry): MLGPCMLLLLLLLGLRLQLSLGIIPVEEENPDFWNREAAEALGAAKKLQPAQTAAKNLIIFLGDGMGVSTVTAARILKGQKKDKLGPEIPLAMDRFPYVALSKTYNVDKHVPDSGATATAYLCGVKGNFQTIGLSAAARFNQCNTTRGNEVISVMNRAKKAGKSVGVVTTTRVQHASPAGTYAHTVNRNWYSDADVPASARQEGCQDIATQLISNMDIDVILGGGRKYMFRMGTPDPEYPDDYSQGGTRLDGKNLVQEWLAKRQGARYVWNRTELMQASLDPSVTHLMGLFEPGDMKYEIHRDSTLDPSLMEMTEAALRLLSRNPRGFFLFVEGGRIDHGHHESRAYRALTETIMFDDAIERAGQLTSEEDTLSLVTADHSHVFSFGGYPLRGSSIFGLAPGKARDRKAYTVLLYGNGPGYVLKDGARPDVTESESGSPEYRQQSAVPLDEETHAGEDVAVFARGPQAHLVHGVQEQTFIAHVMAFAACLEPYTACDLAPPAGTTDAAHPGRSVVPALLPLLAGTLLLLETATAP

[16] = target: T3, Alkaline phosphatase, tissue-nonspecific isozyme (Homo sapiens, UniProt P05186); assay: human TNAP enzyme inhibitors, SAR follow-up, biochemical, luminescent, dose response (AID 1056)
T3 sequence (P05186 whole entry): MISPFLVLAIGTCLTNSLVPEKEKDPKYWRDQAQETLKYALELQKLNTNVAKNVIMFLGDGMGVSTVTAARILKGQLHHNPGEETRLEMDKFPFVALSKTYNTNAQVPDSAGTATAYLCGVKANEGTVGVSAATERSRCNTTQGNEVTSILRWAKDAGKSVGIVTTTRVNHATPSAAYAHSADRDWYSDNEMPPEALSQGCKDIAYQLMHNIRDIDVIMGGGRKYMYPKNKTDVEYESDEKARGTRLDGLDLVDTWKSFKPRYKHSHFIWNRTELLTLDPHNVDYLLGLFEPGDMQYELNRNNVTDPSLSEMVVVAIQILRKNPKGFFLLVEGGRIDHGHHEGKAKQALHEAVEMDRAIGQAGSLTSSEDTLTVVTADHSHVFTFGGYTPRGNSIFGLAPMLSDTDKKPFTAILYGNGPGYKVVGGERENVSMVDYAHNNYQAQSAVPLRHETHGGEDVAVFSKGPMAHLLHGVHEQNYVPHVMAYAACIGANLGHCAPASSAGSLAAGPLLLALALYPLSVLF

[17] = target: Trypsin (Sus scrofa, UniProt P00761); assay: porcine trypsin inhibitors, dose response, selectivity assay for Rce1 protease inhibitor project, biochemical, quenched peptide fluorescence, cherry-pick (AID 488789)
Chain of Trypsin (P00761 whole entry): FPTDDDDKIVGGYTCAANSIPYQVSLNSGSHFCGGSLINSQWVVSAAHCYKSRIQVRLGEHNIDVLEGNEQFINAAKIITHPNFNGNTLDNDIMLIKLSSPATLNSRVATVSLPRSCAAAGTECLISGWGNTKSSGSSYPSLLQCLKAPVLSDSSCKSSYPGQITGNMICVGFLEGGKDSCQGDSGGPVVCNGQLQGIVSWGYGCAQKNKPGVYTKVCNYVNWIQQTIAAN

[18] = target: CAAX prenyl protease 2 (Saccharomyces cerevisiae S288c, UniProt Q03530); format: biochemical
Chain of CAAX prenyl protease 2 (Saccharomyces cerevisiae S288c, UniProt Q03530) (Q03530 whole entry): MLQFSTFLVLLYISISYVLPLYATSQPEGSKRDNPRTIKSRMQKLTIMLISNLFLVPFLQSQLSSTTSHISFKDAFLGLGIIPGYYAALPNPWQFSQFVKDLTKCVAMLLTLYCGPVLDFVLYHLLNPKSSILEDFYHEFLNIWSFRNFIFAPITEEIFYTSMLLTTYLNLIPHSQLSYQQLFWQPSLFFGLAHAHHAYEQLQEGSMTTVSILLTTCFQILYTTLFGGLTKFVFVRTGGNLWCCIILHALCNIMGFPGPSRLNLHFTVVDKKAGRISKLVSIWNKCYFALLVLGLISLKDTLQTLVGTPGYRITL

[19] = target: T4, CAAX prenyl protease 2 (Homo sapiens, UniProt Q9Y256); assay: human Rce1 protease inhibitors, dose response, biochemical, yeast membranes, quenched-peptide fluorescence, cherry-pick (AID 588849)
T4 sequence (Q9Y256 whole entry): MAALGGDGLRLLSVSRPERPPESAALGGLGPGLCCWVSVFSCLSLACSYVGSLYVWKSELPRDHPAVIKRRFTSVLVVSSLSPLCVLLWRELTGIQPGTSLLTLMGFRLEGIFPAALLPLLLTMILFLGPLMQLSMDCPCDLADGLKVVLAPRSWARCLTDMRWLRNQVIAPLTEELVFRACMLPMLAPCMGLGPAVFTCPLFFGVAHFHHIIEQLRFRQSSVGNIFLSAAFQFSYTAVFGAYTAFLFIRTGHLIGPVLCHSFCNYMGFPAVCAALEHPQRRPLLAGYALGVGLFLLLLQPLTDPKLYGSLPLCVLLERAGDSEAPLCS

[20] = tested on: T-cell; assay: inhibitors of CD8+ T cell–vesicle binding, dose response, mouse 2C CD8+ T cells, flow cytometry (AID 485284); format: functional
[21] = cells; format: functional
[22] = target: T5, Replicative DNA helicase DnaB (Mycobacterium tuberculosis, UniProt P9WMR3); assay: DnaB intein splicing inhibitors, dose response, biochemical, cell-free fluorescence (AID 449749); format: functional
T5 sequence (P9WMR3 whole entry): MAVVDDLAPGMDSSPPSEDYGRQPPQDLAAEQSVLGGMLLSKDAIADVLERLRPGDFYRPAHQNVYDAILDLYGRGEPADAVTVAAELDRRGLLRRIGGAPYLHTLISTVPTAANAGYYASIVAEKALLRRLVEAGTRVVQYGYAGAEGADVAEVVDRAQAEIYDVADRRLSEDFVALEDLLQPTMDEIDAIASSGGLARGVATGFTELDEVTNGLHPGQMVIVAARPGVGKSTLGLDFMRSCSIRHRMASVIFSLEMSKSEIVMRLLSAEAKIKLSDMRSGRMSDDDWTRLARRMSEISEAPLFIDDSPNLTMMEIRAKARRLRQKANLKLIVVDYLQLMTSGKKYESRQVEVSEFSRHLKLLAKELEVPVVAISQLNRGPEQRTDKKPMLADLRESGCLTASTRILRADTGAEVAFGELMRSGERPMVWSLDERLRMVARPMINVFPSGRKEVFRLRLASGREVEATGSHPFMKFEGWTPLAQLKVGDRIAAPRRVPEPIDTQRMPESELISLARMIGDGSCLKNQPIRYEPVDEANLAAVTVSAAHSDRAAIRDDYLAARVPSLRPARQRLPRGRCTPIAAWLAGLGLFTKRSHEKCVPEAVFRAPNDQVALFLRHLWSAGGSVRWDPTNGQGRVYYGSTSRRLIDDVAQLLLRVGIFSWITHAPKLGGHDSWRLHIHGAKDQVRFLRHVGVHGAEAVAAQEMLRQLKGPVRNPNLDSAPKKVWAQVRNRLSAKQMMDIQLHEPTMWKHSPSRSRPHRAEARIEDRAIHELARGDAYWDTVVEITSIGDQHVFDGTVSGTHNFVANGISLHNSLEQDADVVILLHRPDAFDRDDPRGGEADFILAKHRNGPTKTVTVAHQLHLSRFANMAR

[23] = target: T6, Protein RecA (Mycobacterium tuberculosis, UniProt P9WHJ3); assay: Fluorescence Cell-Free Homogeneous Dose Retest to Identify Inhibitors of RecA-Intein Splicing Activity. [Related pubchem assays (depositor defined):AID2097, AID2223, AID489010, AID492950]; format: functional
T6 sequence (P9WHJ3 whole entry): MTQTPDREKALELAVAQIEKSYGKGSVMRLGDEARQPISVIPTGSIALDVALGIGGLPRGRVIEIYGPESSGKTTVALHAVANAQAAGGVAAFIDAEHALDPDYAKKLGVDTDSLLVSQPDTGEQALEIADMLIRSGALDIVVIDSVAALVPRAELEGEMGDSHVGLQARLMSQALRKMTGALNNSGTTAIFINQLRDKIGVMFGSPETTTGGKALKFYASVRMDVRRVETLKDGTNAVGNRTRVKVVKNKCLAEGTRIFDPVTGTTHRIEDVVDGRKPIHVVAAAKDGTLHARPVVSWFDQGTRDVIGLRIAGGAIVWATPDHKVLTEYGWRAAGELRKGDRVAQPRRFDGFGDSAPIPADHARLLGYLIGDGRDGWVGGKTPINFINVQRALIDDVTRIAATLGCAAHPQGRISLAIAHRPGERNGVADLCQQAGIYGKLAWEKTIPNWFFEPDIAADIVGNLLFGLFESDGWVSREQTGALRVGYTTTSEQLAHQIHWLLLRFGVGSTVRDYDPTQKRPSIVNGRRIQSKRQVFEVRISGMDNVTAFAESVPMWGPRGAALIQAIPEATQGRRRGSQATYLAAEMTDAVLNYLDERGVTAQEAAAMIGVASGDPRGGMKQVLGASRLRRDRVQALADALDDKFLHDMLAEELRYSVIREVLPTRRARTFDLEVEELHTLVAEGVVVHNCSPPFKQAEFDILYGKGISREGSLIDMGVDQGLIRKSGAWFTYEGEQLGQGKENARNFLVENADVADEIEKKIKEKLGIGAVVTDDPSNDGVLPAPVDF

Chain of DNA damage-inducible transcript 3 protein (P35639 whole entry): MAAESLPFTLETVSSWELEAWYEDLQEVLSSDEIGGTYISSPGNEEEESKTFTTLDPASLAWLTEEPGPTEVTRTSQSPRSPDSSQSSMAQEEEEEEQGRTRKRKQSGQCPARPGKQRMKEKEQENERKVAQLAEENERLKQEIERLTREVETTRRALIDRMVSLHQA
Chain of X-box-binding protein 1 (P17861 whole entry): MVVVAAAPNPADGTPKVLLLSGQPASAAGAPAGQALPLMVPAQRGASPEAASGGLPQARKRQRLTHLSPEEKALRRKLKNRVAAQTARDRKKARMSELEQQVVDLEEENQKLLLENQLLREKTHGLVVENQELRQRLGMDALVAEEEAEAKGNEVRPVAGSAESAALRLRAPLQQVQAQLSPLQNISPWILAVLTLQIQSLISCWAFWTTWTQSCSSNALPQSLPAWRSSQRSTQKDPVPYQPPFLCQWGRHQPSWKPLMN

Question: Which “Absolute IC50 (CHOP)” value [1] does the source give for `CC1=C(C(=O)Nc2ccc(C)cc2C)C(c2cccc(Cl)c2)n2nc(C(=O)OC(C)C)nc2N1` (centres undefined) here?
Answer: Its value is 10 µM.

Question: And the “Absolute IC50 (XBP1)” value [2]?
Answer: The value was 10 µM.

Question: Which results are given for `Cc1csc2c(N3CCN(C(=O)Nc4ccc(Cl)c(Cl)c4)CC3)ncnc12`?
Answer: CC50 [3]: 43.7 µM (active); EC50 [4]: 4.76 µM (active); EC50 [5]: 3.4 µM (active); IC50 [6]: 4.78 µM (active); EC50 [7]: 14.8 µM (active); IC50 [8]: 8.45 µM (active); EC50 [9]: 5 µM (active); IC50 [10]: 3.23 µM (active); IC50 [11]: > 20 µM (inactive); EC50 [12]: 57.1 µM (active); EC50 [13]: 1.88 µM (active)

Question: Which IC50 [14] does the source give for `CCCc1n[nH]c2c1C(=O)CC(C)(C)C2` here?
Answer: The IC50 was > 100 µM (not active).

Question: And the IC50 [15]?
Answer: Its IC50 is > 100 µM (inactive).

Question: And the IC50 [16]?
Answer: The IC50 was 14.4 µM (active).

Question: With `CCn1c(=O)c(-c2ccccc2)c(O)c2ccccc21` as the compound, how does the AC50 [17] read?
Answer: The AC50 was 7.88 µM (active).

Question: What about the AC50 [18] of the same compound?
Answer: Its AC50 is 11.2 µM (active).

Question: And the AC50 [19]?
Answer: Its AC50 is 13.9 µM (active).

Question: For `COc1ccc(NC(=O)Nc2ccc(O)c3ccccc23)cc1`, which EC50 [20] is on record?
Answer: The EC50 was 12.5 µM (active).

Question: What about the IC50 [21] of the same compound?
Answer: Its IC50 is > 50 µM (active).

Question: And the AC50 [22]?
Answer: Its AC50 is 18 µM (active).

Question: What about the EC50 [23] of the same compound?
Answer: Its EC50 is 0.722 µM (active).

Question: With `Cc1ccc(-c2nc3ccc(C)cn3c2CC(=O)N(C)C)cc1` as the compound, how does the AC50 [18] read?
Answer: Its AC50 is 16.8 µM (active).
